Laboratory results: PubChem BioAssay AID328 (DTP/NCI, 2004)
Values joined by “and” are separate entries in the source; they are usually repeats but may differ in a detail not shown here. Equal values may be shown once. Toxic doses and inconclusive results are not listed.

Test system: BDF1 mice, P388 leukemia ip, median survival T/C
Assay: NCI In Vivo Anticancer Drug Screen. Data for tumor model P388 Leukemia (intraperitoneal) in B6D2F1 (BDF1) mice
Conditions: endpoint: median survival time, higher = longer survival
Summary of the method: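 Each value expresses how treatment altered survival: treated-mouse outcome over vehicle-mouse outcome, both groups bearing the transplanted tumour.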

[1] = dose: 100.0 mg/kg/injection, schedule: Q01DX009 (ip), vehicle: Klucel (hydroxypropylcellulose) (HPC)
[2] = dose: 100.0 mg/kg/injection, schedule: Q04DX003 (ip), vehicle: Klucel (hydroxypropylcellulose) (HPC)
[3] = dose: 200.0 mg/kg/injection, schedule: Q01DX009 (ip), vehicle: Klucel (hydroxypropylcellulose) (HPC)
[4] = dose: 200.0 mg/kg/injection, schedule: Q04DX003 (ip), vehicle: Klucel (hydroxypropylcellulose) (HPC)
[5] = dose: 400.0 mg/kg/injection, schedule: Q01DX009 (ip), vehicle: Klucel (hydroxypropylcellulose) (HPC)
[6] = dose: 400.0 mg/kg/injection, schedule: Q04DX003 (ip), vehicle: Klucel (hydroxypropylcellulose) (HPC)
[7] = dose: 12.5 mg/kg/injection, schedule: Q01DX009 (ip), vehicle: saline
[8] = dose: 25.0 mg/kg/injection, schedule: Q01DX009 (ip), vehicle: saline
[9] = dose: 50.0 mg/kg/injection, schedule: Q04DX003 (ip), vehicle: Klucel (hydroxypropylcellulose) (HPC)
[10] = dose: 50.0 mg/kg/injection, schedule: Q01DX009 (ip), vehicle: saline
[11] = dose: 100.0 mg/kg/injection, schedule: Q01DX009 (ip), vehicle: saline
[12] = dose: 100.0 mg/kg/injection, schedule: Q04DX003 (ip), vehicle: saline with Tween-80
[13] = dose: 200.0 mg/kg/injection, schedule: Q04DX003 (ip), vehicle: saline with Tween-80
[14] = dose: 400.0 mg/kg/injection, schedule: Q04DX003 (ip), vehicle: saline with Tween-80

In the case of `CC(=O)c1ccc(Cc2ccc(C(C)=O)cc2)cc1`, the T/C [1] is reported as 104 % of control, the T/C [2] is reported as 100 % of control and the T/C [3] is reported as 104 % of control. For the same molecule, the T/C [4] was 109 % of control, the T/C [5] was 100 % of control and the T/C [6] was 95 % of control.

With `CC(O)c1ccc(-c2ccccc2)cc1` (centres undefined) the T/C [1] was 120 % of control, the T/C [2] was 95 % of control and the T/C [3] was 105 % of control. The T/C [4] was 100 % of control, the T/C [5] was 110 % of control and the T/C [6] was 100 % of control.

With `CN1Cc2cc3cc(c2O)C[N+](C)(C)Cc2c(Cl)c(c(Cl)c(c2Cl)C[N+](C)(C)C3)C1` the T/C (dose: 6.25 mg/kg/injection, schedule: Q01DX009 (ip), vehicle: saline) was 118 % of control, the T/C (dose: 8.2 mg/kg/injection, schedule: Q01DX009 (ip), vehicle: saline) was 108 % of control and the T/C [7] was 108 % of control. For the same molecule, the T/C (dose: 25.0 mg/kg/injection, schedule: Q01DX001 (ip), vehicle: saline) was 104 % of control, the T/C [8] was 109 % of control and the T/C (dose: 50.0 mg/kg/injection, schedule: Q01DX001 (ip), vehicle: saline) was 100 % of control. The T/C (dose: 118.0 mg/kg/injection, schedule: Q01DX009 (ip), vehicle: saline) was 112 % of control.

For `O=C(Cc1ccc([N+](=O)[O-])cc1)c1ccc(O)cc1O`, the T/C [9] was 86 % of control, the T/C [2] was 95 % of control and the T/C [4] was 90 % of control.

In the case of `O=C1OCC/C1=C1/Nc2ccccc2NC1=O`, the T/C (dose: 12.5 mg/kg/injection, schedule: Q01DX009 (ip), vehicle: saline with Tween-80) is reported as 105 % of control, the T/C (dose: 25.0 mg/kg/injection, schedule: Q01DX009 (ip), vehicle: saline with Tween-80) is reported as 100 % of control and the T/C (dose: 50.0 mg/kg/injection, schedule: Q01DX009 (ip), vehicle: saline with Tween-80) is reported as 96 % of control.

In the case of `CCN(C(=O)CCl)C(C)(C)C(SSSC(c1ccc(Cl)cc1)C(C)(C)N(CC)C(=O)CCl)c1ccc(Cl)cc1` (centres undefined), the T/C [7] is reported as 118 % of control, the T/C (dose: 16.5 mg/kg/injection, schedule: Q01DX009 (ip), vehicle: saline) is reported as 116 % of control and the T/C [8] is reported as 116 % of control. The T/C (dose: 37.5 mg/kg/injection, schedule: Q01DX009 (ip), vehicle: saline) was 116 % of control and the T/C [10] was 118 % of control.

With `NC1=NC(=O)/C(=C/c2ccccc2)S1` the T/C [10] was 90 % of control, the T/C [11] was 100 % of control and the T/C (dose: 200.0 mg/kg/injection, schedule: Q01DX009 (ip), vehicle: saline) was 100 % of control.

In the case of `COc1ccc2c(c1OC)CCN1C3=C(CC4(CC3)OCCO4)C(=O)CC21` (centres undefined), the T/C (dose: 100.0 mg/kg/injection, schedule: Q04DX003 (ip), vehicle: saline sonified) is reported as 105 % of control, the T/C (dose: 200.0 mg/kg/injection, schedule: Q04DX003 (ip), vehicle: saline sonified) is reported as 100 % of control and the T/C (dose: 400.0 mg/kg/injection, schedule: Q04DX003 (ip), vehicle: saline sonified) is reported as 90 % of control.

For `O=C1CN(CCl)C(=O)CN1CCl`, the T/C (dose: 12.5 mg/kg/injection, schedule: Q04DX003 (ip), vehicle: water) was 100 % of control and 107 % of control, the T/C (dose: 25.0 mg/kg/injection, schedule: Q01DX009 (ip), vehicle: water) was 94 % of control and the T/C (dose: 25.0 mg/kg/injection, schedule: Q04DX003 (ip), vehicle: water) was 92 % of control and 103 % of control. For the same molecule, the T/C (dose: 50.0 mg/kg/injection, schedule: Q01DX009 (ip), vehicle: water) was 92 % of control, the T/C (dose: 50.0 mg/kg/injection, schedule: Q04DX003 (ip), vehicle: water) was 95 % of control and 107 % of control and the T/C (dose: 100.0 mg/kg/injection, schedule: Q01DX009 (ip), vehicle: water) was 100 % of control. The T/C (dose: 100.0 mg/kg/injection, schedule: Q04DX003 (ip), vehicle: water) was 96 % of control and the T/C (dose: 200.0 mg/kg/injection, schedule: Q01DX009 (ip), vehicle: water) was 94 % of control.

`CCNC(=O)Nc1ccc(N(CC)CC)cc1` was tested, and the T/C [12] was 100 % of control, the T/C [13] was 100 % of control and the T/C [14] was 100 % of control.

For `O=C1c2ccccc2C(=O)C(Cl)C1Cl` (centres undefined), the T/C (dose: 1.56 mg/kg/injection, schedule: Q01DX009 (ip), vehicle: saline with Tween-80) was 117 % of control, the T/C (dose: 3.13 mg/kg/injection, schedule: Q01DX009 (ip), vehicle: saline with Tween-80) was 103 % of control and the T/C (dose: 6.25 mg/kg/injection, schedule: Q01DX009 (ip), vehicle: saline with Tween-80) was 101 % of control.

For `FC(F)(F)c1nc2nc(Cl)c(Cl)nc2s1`, the T/C (dose: 0.78 mg/kg/injection, schedule: Q04DX003 (ip), vehicle: other) was 104 % of control, the T/C (dose: 1.56 mg/kg/injection, schedule: Q01DX009 (ip), vehicle: other) was 99 % of control and the T/C (dose: 1.56 mg/kg/injection, schedule: Q04DX003 (ip), vehicle: other) was 117 % of control. For the same molecule, the T/C (dose: 3.12 mg/kg/injection, schedule: Q01DX009 (ip), vehicle: other) was 90 % of control, the T/C (dose: 3.12 mg/kg/injection, schedule: Q04DX003 (ip), vehicle: other) was 98 % of control and the T/C (dose: 6.25 mg/kg/injection, schedule: Q01DX009 (ip), vehicle: other) was 90 % of control. The T/C (dose: 6.25 mg/kg/injection, schedule: Q04DX003 (ip), vehicle: other) was 121 % of control, the T/C (dose: 12.5 mg/kg/injection, schedule: Q01DX009 (ip), vehicle: other) was 99 % of control and the T/C (dose: 12.5 mg/kg/injection, schedule: Q04DX003 (ip), vehicle: other) was 111 % of control.

For `CNNCc1ccc(C(=O)NC(C)C)cc1`, the T/C (dose: 37.5 mg/kg/injection, schedule: Q01DX010 (ip), vehicle: saline) was 100 % of control, the T/C [11] was 112 % of control and 116 % of control and the T/C (dose: 120.0 mg/kg/injection, schedule: Q01DX009 (ip), vehicle: saline) was 106 % of control. The T/C (dose: 125.0 mg/kg/injection, schedule: Q01DX009 (ip), vehicle: saline) was 123 % of control, the T/C (dose: 225.0 mg/kg/injection, schedule: Q01DX009 (ip), vehicle: saline) was 180 % of control and the T/C (dose: 250.0 mg/kg/injection, schedule: Q01DX009 (ip), vehicle: saline) was 161 % of control. For the same molecule, the T/C (dose: 400.0 mg/kg/injection, schedule: Q01DX001 (ip), vehicle: saline) was 109 % of control.

For `O=c1cc(O)ccn1CC(O)c1ccc(Cl)s1` (centres undefined), the T/C (dose: 100.0 mg/kg/injection, schedule: Q01DX009 (ip), vehicle: saline with Tween-80) was 101 % of control and 111 % of control, the T/C [12] was 109 % of control and the T/C (dose: 200.0 mg/kg/injection, schedule: Q01DX009 (ip), vehicle: saline with Tween-80) was 92 % of control and 104 % of control. For the same molecule, the T/C [13] was 110 % of control, the T/C (dose: 400.0 mg/kg/injection, schedule: Q01DX009 (ip), vehicle: saline with Tween-80) was 108 % of control and 113 % of control and the T/C [14] was 119 % of control.

With `COc1cc(OC)c(C(=O)CCc2ccccc2)c(O)c1Cc1ccccc1O` the T/C (dose: 0.5 mg/kg/injection, schedule: Q01DX009 (ip), vehicle: saline) was 106 % of control, the T/C (dose: 2.0 mg/kg/injection, schedule: Q01DX009 (ip), vehicle: saline) was 113 % of control and the T/C (dose: 4.0 mg/kg/injection, schedule: Q01DX009 (ip), vehicle: saline with Tween-80) was 120 % of control. The T/C (dose: 4.0 mg/kg/injection, schedule: Q01DX009 (ip), vehicle: saline) was 103 % of control, the T/C (dose: 5.9 mg/kg/injection, schedule: Q01DX009 (ip), vehicle: saline with Tween-80) was 103 % of control and the T/C (dose: 13.0 mg/kg/injection, schedule: Q01DX009 (ip), vehicle: saline with Tween-80) was 103 % of control.

With `CC1c2ccccc2N(S(=O)(=O)c2ccccc2)C1C` (centres undefined) the T/C (dose: 100.0 mg/kg/injection, schedule: Q01DX009 (ip), vehicle: gum acacia) was 107 % of control, the T/C (dose: 200.0 mg/kg/injection, schedule: Q01DX009 (ip), vehicle: gum acacia) was 92 % of control and the T/C (dose: 400.0 mg/kg/injection, schedule: Q01DX009 (ip), vehicle: gum acacia) was 100 % of control.

In the case of `[N-]=[N+]=NCc1cnccn1`, the T/C [7] is reported as 100 % of control and the T/C [8] is reported as 113 % of control.

With `C[Si](C)(C)C1([Si](C)(C)C)CO1` the T/C (dose: 100.0 mg/kg/injection, schedule: Q04DX003 (ip), vehicle: saline) was 108 % of control, the T/C (dose: 200.0 mg/kg/injection, schedule: Q04DX003 (ip), vehicle: saline) was 109 % of control and the T/C (dose: 400.0 mg/kg/injection, schedule: Q04DX003 (ip), vehicle: saline) was 108 % of control.

`OCC1(CO)COC(c2ccccc2)OC1` was tested, and the T/C (dose: 25.0 mg/kg/injection, schedule: Q04DX003 (ip), vehicle: Klucel (hydroxypropylcellulose) (HPC)) was 95 % of control, the T/C [9] was 100 % of control and the T/C [2] was 100 % of control.
